Source: publication PMC12775434, “Ultra-large virtual screening unveils potent agonists of the neuromodulatory orphan receptor GPR139” (Nature Communications, 2025)
Values joined by “and” are separate entries in the source; they are usually repeats but may differ in a detail not shown here. Equal entries are not always repeated. Where two headings read alike, the source gives them in different places.

Target: T1, GPR139 (Homo sapiens, UniProt Q6DWJ6)
T1 sequence (Q6DWJ6 1-353): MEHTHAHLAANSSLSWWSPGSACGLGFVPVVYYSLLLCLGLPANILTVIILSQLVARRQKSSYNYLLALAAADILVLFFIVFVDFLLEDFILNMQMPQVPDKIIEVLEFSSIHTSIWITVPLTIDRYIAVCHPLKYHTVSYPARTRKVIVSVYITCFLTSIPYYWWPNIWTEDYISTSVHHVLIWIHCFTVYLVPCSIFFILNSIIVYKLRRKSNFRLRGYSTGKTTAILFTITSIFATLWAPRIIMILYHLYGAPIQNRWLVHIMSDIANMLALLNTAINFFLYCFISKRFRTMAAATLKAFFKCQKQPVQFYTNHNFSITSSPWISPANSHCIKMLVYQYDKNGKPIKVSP
Assay: Inositol monophosphate (IP1) accumulation assay, GPR139-CHOk1
Type: cell-based
Conditions: for EC50: read-out: pEC50 IP1 (converted); for IP1 response (% of Cmp 1a): replicate experiments
Method: Primary screening and pharmacological characterization of compounds were performed using a CHO-K1 cell line that stably expresses human GPR139 (GPR139-CHOk1). The GPR139-CHOk1 cell line was kindly provided by H. Lundbeck A/S, Denmark[24]. GPR139-CHOk1 cells were grown in Ham’s F-12 Kaighn’s Modification Medium (ThermoFisher #21127030) supplemented with 10% dialyzed fetal bovine serum (US origin, ThermoFisher #26400044), 100 units/mL Penicillin-Streptomycin (ThermoFisher #15140122), and 1 mg/mL Geneticin (ThermoFisher #11811031). […] M1R-CHOk1 cells were purchased from The Missouri S&T cDNA Resource Center (#CEM100TN00). M1R-CHOk1 cells were grown in Ham’s F12 Medium (ThermoFisher #21765029) supplemented with 10% fetal bovine serum (Brazilian origin, ThermoFisher #10270106), 100 units/mL Penicillin-Streptomycin, and 0.25 mg/mL Geneticin. HEK293A cells transiently transfected with GPR139 were used for additional pharmacological assessment of signaling pathways activated by GPR139. HEK239A cells were generously provided by Dr. Asuka Inoue, Tohoku University, Japan. HEK293A cells were grown in Dulbecco’s Modified Eagle Medium (ThermoFisher #31966047) supplemented with 10% dialyzed fetal bovine serum and 100 units/mL Penicillin-Streptomycin. Cell lines were maintained at 37 °C in humidified incubator equilibrated with 5% CO2.
HTRF IP-One Gq kit (Cisbio #62IPAPEC) was used to detect the accumulation of inositol monophosphate (IP1) as described in the work by Shehata et al.[26]. GPR139-CHOk1 cells were dissociated and resuspended in HEPES buffer. 50,000 cells in 5 µL and 5 µL test compounds diluted from DMSO stocks (final DMSO concentration of maximally 0.3%) in HEPES buffer supplemented with 40 mM LiCl were mixed in each well of white 384-well OptiPlate (PerkinElmer #6007290). The cells were incubated for 1 h at 37 °C. Then, 10 µL detection reagent composed of 2.5% Eu3 + -anti-IP1 antibody and 2.5% IP1-d2 diluted in lysis buffer was added, and the cells were incubated for 1 h at room temperature before measurements. Measurements were performed on EnVision Multimode Plate Reader (PerkinElmer) using excitation light of 340 nm and emission light of 615 nm and 665 nm. The time resolved-fluorescence resonance energy transfer (TR-FRET) 665 nm/615 nm ratio, which is inversely proportional to the IP1 accumulation, was used to determine the IP1 response.
Pharmacological data and statistical analyses were performed in GraphPad Prism v9–10 (Graphpad Software Inc., San Diego, CA), which are also specifically described in the figure and table legends. The functional assay responses were normalized to buffer (0%) and Lundbeck Cmp 1a or JNJ-63533054 (100%), for Ca^2+ and IP1 experiments in the GPR139-CHOk1 stable cell line or Ca^2+, G protein activation, and arrestin-3 recruitment experiments in the HEK293A cells transiently transfected with GPR139, respectively. Data are from at least three independent experiments, unless stated otherwise. Concentration-response curves were fitted applying non-linear regression using the log (agonist) versus response model with variable slope. ANOVA was applied for comparing results and determining statistical significance. Comparison of responses to the reference was performed using one-way ANOVA with Dunnett’s multiple comparisons test at significance threshold of p < 0.05. Comparison of responses across assays and ligands was performed using two-way ANOVA with Tukey’s multiple comparisons test at a significance threshold of p < 0.05.

EC50 (Supplementary Table 2, mean ± SEM) [µM] | Emax (Supplementary Table 2, normalized to Lundbeck Cmp 1a, read-out: Emax (%) IP1) [%] | SMILES | IP1 response (% of Cmp 1a) (log [Compound] M -4.5) | IP1 response (% of Cmp 1a) (log [Compound] M -5.0) | IP1 response (% of Cmp 1a) (log [Compound] M -5.5) | IP1 response (% of Cmp 1a) (log [Compound] M -6.0) | IP1 response (% of Cmp 1a) (log [Compound] M -6.5) | IP1 response (% of Cmp 1a) (log [Compound] M -7.0) | IP1 response (% of Cmp 1a) (log [Compound] M -7.5) | IP1 response (% of Cmp 1a) (log [Compound] M -8.0) | EC50 [µM]
1.58 | 85 ± 8 | COC(=O)c1cc(NC(=O)NC(C)c2cccc(F)c2F)ccc1C (stereo not shown) [Compound 2, COC(=O)C=1C=C(NC(=O)NC(C)C=2C=CC=C(F)C2F)C=CC1C] | 75 % of Cmp 1a and 55 % of Cmp 1a and 76 % of Cmp 1a and 90 % of Cmp 1a | 64 % of Cmp 1a and 44 % of Cmp 1a and 66 % of Cmp 1a and 76 % of Cmp 1a | 50 % of Cmp 1a and 41 % of Cmp 1a and 46 % of Cmp 1a and 65 % of Cmp 1a | 34 % of Cmp 1a and 26 % of Cmp 1a and 28 % of Cmp 1a and 41 % of Cmp 1a | 18 % of Cmp 1a and 16 % of Cmp 1a and 10 % of Cmp 1a and 22 % of Cmp 1a | 8 % of Cmp 1a (2×) and 5 % of Cmp 1a and 3.81 % of Cmp 1a | 6.59 % of Cmp 1a and -1 % of Cmp 1a and 0.549 % of Cmp 1a and 2.33 % of Cmp 1a | 1.89 % of Cmp 1a and -0.926 % of Cmp 1a and 0.158 % of Cmp 1a and 0.886 % of Cmp 1a | –
– | – | Cc1noc(C(C)NC(=O)Nc2cccc(-c3ccccc3)c2)n1 (stereo not shown) [Compound 3, CC(NC(=O)NC=1C=CC=C(C1)C=2C=CC=CC2)C3=NC(C)=NO3] | 41 % of Cmp 1a and 46 % of Cmp 1a and 42 % of Cmp 1a | 22 % of Cmp 1a and 29 % of Cmp 1a and 28 % of Cmp 1a | 8 % of Cmp 1a and 12 % of Cmp 1a and 10 % of Cmp 1a | 0.417 % of Cmp 1a and 2.14 % of Cmp 1a and 6 % of Cmp 1a | -2.63 % of Cmp 1a and 1.42 % of Cmp 1a and -1.19 % of Cmp 1a | -0.0724 % of Cmp 1a and 2 % of Cmp 1a and 0.325 % of Cmp 1a | -1.11 % of Cmp 1a and -1.52 % of Cmp 1a and 2 % of Cmp 1a | -0.434 % of Cmp 1a and 0.295 % of Cmp 1a and 1.29 % of Cmp 1a | 50.1
– | – | Cc1noc(CNC(=O)C2(C)CCCCN2C(=O)c2ccccc2)n1 (stereo not shown) [Compound 4, CC1=NOC(CNC(=O)C2(C)CCCCN2C(=O)C=3C=CC=CC3)=N1] | 109 % of Cmp 1a and 91 % of Cmp 1a and 86 % of Cmp 1a | 40 % of Cmp 1a and 36 % of Cmp 1a and 37 % of Cmp 1a | 13 % of Cmp 1a and 11 % of Cmp 1a and 14 % of Cmp 1a | 6.46 % of Cmp 1a and 2.74 % of Cmp 1a and 2.36 % of Cmp 1a | -0.931 % of Cmp 1a and -1.18 % of Cmp 1a and 0.0496 % of Cmp 1a | 3.23 % of Cmp 1a and -0.893 % of Cmp 1a and -2.41 % of Cmp 1a | 2.42 % of Cmp 1a and -4 % of Cmp 1a and -2.57 % of Cmp 1a | 1.1 % of Cmp 1a and -0.196 % of Cmp 1a and -1.07 % of Cmp 1a | 12.6
